Results as given in patent US8946266B2, “Substituted triazole and imidazole derivatives as gamma secretase modulators” (Janssen Pharmaceuticals, Inc., priority 2009, dated 2015).

Columns and labels:
Aβ42 [1] = assay: γ-secretase-modulating activity, Method 2: Aβ42 Alphalisa in supernatant of SKNBE2 cells carrying APP 695-wild type (Table 3b); assay type: cell-based; settings: overnight
Outline: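 SKNBE2 cells expressing wild-type APP695 were incubated overnight at 37° C. with test compound. Secreted Aβ42 was then measured by AlphaLISA, using a C-terminal Aβ42 antibody paired with an N-terminal Aβ antibody. IC50 came from a 4-parameter fit of percent of compound-free control.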

Aβtotal [2] = assay: γ-secretase-modulating activity, Method 2: Aβtotal Alphalisa in supernatant of SKNBE2 cells carrying APP 695-wild type (Table 3b); assay type: cell-based; settings: overnight, read-out: IC50 Aβtot
Outline: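 SKNBE2 cells expressing wild-type APP 695 were incubated overnight at 37 °C, 5% CO2 with test compound at a range of concentrations. Aβtotal in supernatant was measured by AlphaLISA sandwich (N-terminal JRF/AβN/25 acceptor, biotinylated mid-region 4G8 donor); IC50 from 4-parameter fit of percent control versus log concentration.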

Aβ42 [3] = assay: In vivo efficacy, Method 2: brain soluble Aβ42 lowering 4 h after a single oral dose, ELISA (Table 4b); design: species or system mouse; settings: dose 30 mg/kg oral dosing
Excerpt: (§1) To determine whether acute administration of an Aβ42 lowering agent would reduce Aβ42 levels in vivo, non-transgenic rodents, e.g. mice or rats were used. Animals treated with the Aβ42 lowering agent were examined and compared to those untreated or treated with vehicle and brain levels of soluble Aβ42 and total Aβ were quantitated by standard techniques, for example, using ELISA. Treatment periods varied from hours (h) to days and were adjusted based on the results of the Aβ42 lowering once a time course of onset of effect could be established.
(§2) A typical protocol for measuring Aβ42 lowering in vivo is shown but it is only one of many variations that could be used to optimize the levels of detectable Aβ. For example, Aβ42 lowering compounds were formulated in 20% of Captisol® (a sulfobutyl ether of β-cyclodextrin) in water or 20% hydroxypropyl β cyclodextrin. The Aβ42 lowering agents were administered as a single oral dose or by any acceptable route of administration to overnight fasted animals. After 4 h, the animals were sacrificed and Aβ42 levels were analysed.
(§3) Blood was collected by decapitation and exsanguinations in EDTA-treated collection tubes. Blood was centrifuged at 1900 g for 10 minutes (min) at 4° C. and the plasma recovered and flash frozen for later analysis. The brain was removed from the cranium and hindbrain. The cerebellum was removed and the left and right hemisphere were separated. The left hemisphere was stored at −18° C. for quantitative analysis of test compound levels. The right hemisphere was rinsed with phosphate-buffered saline (PBS) buffer and immediately frozen on dry ice and stored at −80° C. until homogenization for biochemical assays.
(§4) Mouse brains from non-transgenic animals were resuspended in 8 volumes of 0.4% DEA (diethylamine)/50 mM NaCl containing protease inhibitors (Roche-11873580001 or 04693159001) per gram of tissue, e.g. for 0.158 g brain, add 1.264 ml of 0.4% DEA. All samples were homogenized in the FastPrep-24 system (MP Biomedicals) using lysing matrix D (MPBio #6913-100) at 6 m/s for 20 seconds. Homogenates were centrifuged at 221.300×g for 50 min. The resulting high speed supernatants were then transferred to fresh eppendorf tubes. Nine parts of supernatant were neutralized with 1 part 0.5 M Tris-HCl pH 6.8 and used to quantify Aβtotal and Aβ42.
(§5) To quantify the amount of Aβtotal and Aβ42 in the soluble fraction of the brain homogenates, Enzyme-Linked-Immunosorbent-Assays were used. Briefly, the standards (a dilution of synthetic Aβ1-40 and Aβ1-42, Bachem) were prepared in 1.5 ml Eppendorf tube in Ultraculture, with final concentrations ranging from 10000 to 0.3 pg/ml. The samples and standards were co-incubated with HRPO-labelled N-terminal antibody for Aβ42 detection and with the biotinylated mid-domain antibody 4G8 for Aβtotal detection. 50 μl of conjugate/sample or conjugate/standards mixtures were then added to the antibody-coated plate (the capture antibodies selectively recognize the C-terminal end of Aβ42, antibody JRF/cAβ42/26, for Aβ42 detection and the N-terminus of Aβ, antibody JRF/rAβ/2, for Aβtotal detection). The plate was allowed to incubate overnight at 4° C. in order to allow formation of the antibody-amyloid complex. Following this incubation and subsequent wash steps the ELISA for Aβ42 quantification was finished by addition of Quanta Blu fluorogenic peroxidase substrate according to the manufacturer's instructions (Pierce Corp., Rockford, Ill.). A reading was performed after 10 to 15 min (excitation 320/emission 420).
In this model at least 20% Aβ42 lowering compared to untreated animals would be advantageous.
(§6) The results are shown in Table 4b (dose 30 mg/kg oral dosing): […]

Aβtotal [4] = assay: In vivo efficacy, Method 2: brain soluble Aβtotal lowering 4 h after a single oral dose, ELISA (Table 4b); design: species or system mouse; settings: dose 30 mg/kg oral dosing
Excerpt: as §1, §2, §3, §4, §5
For Aβtotal detection, a Streptavidine-Peroxidase-Conjugate was added, followed 60 min later by an additional wash step and addition of Quanta Blu fluorogenic peroxidase substrate according to the manufacturer's instructions (Pierce Corp., Rockford, Ill.). A reading was performed after 10 to 15 min (excitation 320 nm/emission 420 nm).
as §6

Row | Structure (SMILES) | IC50 (Aβ42 [1]) | IC50 (Aβtotal [2]) | Aβ42 (% Ctrl) _Mean (Aβ42 [3]) | Aβtotal (% Ctrl) _Mean (Aβtotal [4])
1 | COc1cc(-c2nc(Nc3cc([S+](C)[O-])ccc3F)n(C)n2)ccc1-n1cnc(C)c1 (racemic) [Compound 330] | 603 nM | 68 nM | −9 % Ctrl | −2 % Ctrl
2 | COc1cc(-c2nc(Nc3ccccc3OC(F)F)n(C)n2)ccc1-n1cnc(C)c1 [Compound 310] | 44 nM | > 10000 nM | 45 % Ctrl | 20 % Ctrl
3 | COc1cc(C(F)(F)F)cc(Nc2nc(-c3ccc(-n4cnc(C)c4)c(OC)n3)nn2C)c1F [Compound 353] | 17 nM | > 10000 nM | 63 % Ctrl | 2 % Ctrl
4 | COc1nc(-c2nc(N3CCCC(c4ccccc4)C3)n(C(C)C)n2)ccc1-n1cnc(C)c1.Cl (racemic) [Compound 80] | 56 nM | 10000 nM | −20 % Ctrl | −19 % Ctrl
5 | COc1cc(-c2nc(Nc3cc(OC(F)(F)F)ccc3F)n(C)n2)ccc1-n1cnc(C)c1 [Compound 185] | 17 nM | > 10000 nM | 40 % Ctrl | 9 % Ctrl
6 | COc1cc(-c2nc(Nc3cc(C(C)(C)C)nn3C)n(C)n2)ccc1-n1cnc(C)c1 [Compound 244] | 83 nM | > 10000 nM | 7 % Ctrl | 5 % Ctrl
7 | COc1nc(-c2nc(Nc3cc(Cl)ccc3F)n(C)n2)ccc1-n1cnc(C)c1 [Compound 117] | 60 nM | > 10000 nM | 44 % Ctrl | 17 % Ctrl
8 | COc1cc(-c2nc(Nc3ccccc3OC(F)(F)F)n(C)n2)ccc1-n1cnc(C)c1.Cl.Cl [Compound 182] | 35 nM | 8510 nM | 55 % Ctrl | 14 % Ctrl
9 | COc1cc(-c2nc3n(n2)CCC[C@@H]3c2ccccc2C(F)(F)F)ccc1-n1cnc(C)c1 [Compound 260] | 457 nM | > 15000 nM | −1 % Ctrl | −9 % Ctrl
10 | COc1cc(-c2nc(Nc3cccc(F)c3C)n(C)n2)ccc1-n1cnc(C)c1 [Compound 304] | 42 nM | > 10000 nM | 48 % Ctrl | 11 % Ctrl
11 | COc1cc(-c2nc(Nc3cc(Cl)ccc3F)n(C)n2)ccc1-n1cnc(C)c1 [Compound 123] | 58 nM | > 10000 nM | 36 % Ctrl | 31 % Ctrl
12 | COc1cc(-c2nc(Nc3cc(C(F)(F)F)ccc3Cl)n(C)n2)ccc1-n1cnc(C)c1 [Compound 177] | 10 nM | > 10000 nM | 51 % Ctrl | 11 % Ctrl
13 | COc1cc(-c2nc3n(n2)CCCC3c2cc(C(F)(F)F)ccc2C)ccc1-n1cnc(C)c1 (stereo not drawn) [Compound 264] | 15 nM | > 10000 nM | 49 % Ctrl | 8 % Ctrl
14 | COc1ccc(C)c(Nc2nc(-c3ccc(-n4cnc(C)c4)c(OC)c3)nn2C)c1 [Compound 199] | 16 nM | > 10000 nM | 39 % Ctrl | 5 % Ctrl
15 | COc1cc(-c2nc(Nc3ccc(F)c(C(F)(F)F)c3)n(C)n2)ccc1-n1cnc(C)c1 [Compound 152] | 19 nM | > 10000 nM | 10 % Ctrl | −9 % Ctrl
